Experimental data published in patent US8609608B2, “Antimicrobial peptides” (C3 Jian, Inc., priority 2007, dated 2013).
Where no end group is shown, it is not given here.

Tests used:
P. aeruginosa = assay: MIC against P. aeruginosa; format: cell-based, Pseudomonas aeruginosa
[1] = tested on: clinical isolates of S. mutans; format: cell-based, Streptococcus mutans; details: clinical isolates of
Experimental: S. mutans clinical isolates UA140 (32), UA159 (1), T8 (33), ATCC 25175, GS5 (Kuramitsu and Ingersoll (1977) Infect Immun., 17: 330-337), and all gram-positive strains listed below (see Table 9) were grown under anaerobic conditions in brain heart infusion or Todd-Hewitt (TH) broth (Difco) overnight at 37° C. prior to use (Eckert et al. (2006) Antimicrob. Agents Chemother. 50: 3651-3657). Veillonella atypica PK1910 was grown in Veillonella medium (Egland et al. (2004) Proc. Natl. Acad. Sci., USA, 101: 16917-16922). All strains were grown in an anaerobic atmosphere of 80% N2, 10% CO2, and 10% H2.
Antibacterial growth inhibition assays were performed using sterile 96-well plates in a final volume of 100 μl, TH or Veillonella medium as described previously (Qi et al. (2005) FEMS Microbial Lett. 251: 321-326). Briefly, bacterial cells were grown overnight to an optical density at 600 nm of 0.75 to 0.8 (corresponding to 1×10^8 CFU/ml) and then diluted to 1×10^5 CFU/ml in broth and aliquoted onto plates. An appropriate volume of peptide stock solution (5 to 20 mg/ml, in water or methanol, depending on solubility) was then added to the first column of the plate to give 500 μg/ml or 512 μg/ml, followed by serial 1:2 dilutions across the plate to give wells containing peptides ranging from 500 to 1.95 μg/ml or 512 to 2 μg/ml. Methanol alone was also added to control for the effects of the solvent. The plates were then incubated at 37° C. under anaerobic conditions for 16 to 20 h without shaking, and the MIC was determined as the concentration of peptide present in the last clear well after visual inspection. Up to 5% (vol/vol) methanol was found not to be antimicrobial (data not shown). MICs were determined in triplicate for all bacteria.

Substance	MIC P. aeruginosa (P. aeruginosa) [mg/L]	MIC S. aureus (S. aureus) [mg/L]	MIC L. casei (L. casei) [mg/L]	MIC S. mutans [1] [mg/L]	MIC E. faecalis (E. faecalis) [mg/L]
FKFKHKLIF [Peptide S3L8-36, FKFKHKLIF]	>125	>125	>62.5	>125	>125
LRHRLRHRLIF [Peptide S3L8-31, LRHRLRHRLIF]	>125	>125	>62.5	>125	125
FLFKHLFLHRIFF [Peptide S3L8-16, FLFKHLFLHRIFF]	>125	>125	>62.5	>125	>125
VLRHLFRHRIVF [Peptide S3L8-21, VLRHLFRHRIVF]	>125	>125	>62.5	60	93.5
VIRHVWVRKLF [Peptide S3L8-27, VIRHVWVRKLF]	>125	>125	>62.5	60	>125
WRWRARWRWRLRWRF [Peptide S3L8-3, WRWRARWRWRLRWRF]	>125	16	16	4	8
FRHRFRHRF [Peptide S3L8-34, FRHRFRHRF]	>125	>125	>62.5	>125	>125
LRLFLRWLF [Peptide S3L8-39, LRLFLRWLF]	>125	16	16	16	32
FVFRHKWVWKHRFLF [Peptide S3L8-1, FVFRHKWVWKHRFLF]	>125	>125	62.5	16	32
VFKRVLIHKLIF [Peptide S3L8-23, VFKRVLIHKLIF]	>125	>125	62.5	>125	32
VLKHVIAHKRLF [Peptide S3L8-25, VLKHVIAHKRLF]	>125	>125	>62.5	>125	>125
FKHKFKHKFIF [Peptide S3L8-30, FKHKFKHKFIF]	>125	>125	>62.5	>125	>125
FIRKFLFKHLF [Peptide S3L8-26, FIRKFLFKHLF]	>125	62.5	16	16	24
FLFRHRFRHRLVF [Peptide S3L8-28, FLFRHRFRHRLVF]	>125	>125	>62.5	60	62.5
LKHKLKHKF [Peptide S3L8-35, LKHKLKHKF]	>125	>125	>62.5	>125	>125
LKAKIKFKVKLKIKF [Peptide S3L8-11, LKAKIKFKVKLKIKF]	32 to 62.5	125	3	8	39
WIWKHKFLHRHFLF [Peptide S3L8-12, WIWKHKFLHRHFLF]	>125	>125	>62.5	125	125
FKFLFKHKF [Peptide S3L8-40, FKFLFKHKF]	>125	>125	62.5	30	62.5
VLIRILVRVIF [Peptide S3L8-33, VLIRILVRVIF]	>125	125	16	>125	16
VFLHRHVIKHKLVF [Peptide S3L8-13, VFLHRHVIKHKLVF]	>125	>125	>62.5	–	125
WRIHLRARLHVKFRF [Peptide S3L8-4, WRIHLRARLHVKFRF]	>125	62.5	8	–	8
LVHKLILRHLLF [Peptide S3L8-22, LVHKLILRHLLF]	>125	>125	>62.5	>125	>125
FKFLFKF [Peptide S3L8-42, FKFLFKF]	>125	>125	>62.5	>125	>125
LRIHARFKVHIRLKF [Peptide S3L8-5, LRIHARFKVHIRLKF]	>125	>125	8	60	12
FHIKFRVHLKVRFHF [Peptide S3L8-6, FHIKFRVHLKVRFHF]	>125	>125	8	–	>125
FLHKHLFKHKLF [Peptide S3L8-18, FLHKHLFKHKLF]	>125	>125	>62.5	>125	>125
FKAHIRFKLRVKFHF [Peptide S3L8-10, FKAHIRFKLRVKFHF]	>125	>125	8	–	>125
VFIVWVHKHVLF [Peptide S3L8-2, VFIVWVHKHVLF]	>125	>125	>62.5	–	>125
